According to patent US20050170431A1, “PYK2 crystal structure and uses” (Plexxikon, Inc., priority 2003, published 2005):

Target: T1, Pyk2 kinase domain residues 419 to 691 (Homo sapiens, UniProt Q14289)
T1 construct: PYK2 kinase domain I420-M691 (not including first 21 aa in); made in house; host or cells: E. coli BL21 (DE3) pLysS
Test: PYK2 kinase activity assay in AlphaScreen, inhibition by ATP analogs
Format: biochemical
Settings: Pyk2 at 8 ng/well and ATP at 10 uM; read-out: affinity with Pyk2
Experimental: As an exemplary kinase assay, the kinase activity of PYK2 was measured in AlphaScreening (Packard BioScience). The kinase buffer (HMNB) contains HEPES 50 mM at pH7.2, Mg/Mn 5 mM each, NP-40 0.1%, and BSA at final 50 ug/ml. AlphaScreening is conducted as described by the manufacturer. In brief, the kinase reaction is performed in 384-well plate in 25 ul volume. The substrate is biotin-(E4Y)3 at final concentration of 1 nM. The final concentration of ATP is 10 uM. For compound testing the final DMSO concentration is 1%. The reaction is incubated in 31° C. for 1 hour.
The Pyk2 kinase domain residues 419 to 691 is an active kinase in AlphaScreen. […] Inhibition by ATP analogs was tested with Pyk2 at 8 ng/well and ATP at 10 uM. […] Adenosine and AMP-PCP have little effect on PYK2 in the concentration tested.

T1 sequence (Q14289 420-691): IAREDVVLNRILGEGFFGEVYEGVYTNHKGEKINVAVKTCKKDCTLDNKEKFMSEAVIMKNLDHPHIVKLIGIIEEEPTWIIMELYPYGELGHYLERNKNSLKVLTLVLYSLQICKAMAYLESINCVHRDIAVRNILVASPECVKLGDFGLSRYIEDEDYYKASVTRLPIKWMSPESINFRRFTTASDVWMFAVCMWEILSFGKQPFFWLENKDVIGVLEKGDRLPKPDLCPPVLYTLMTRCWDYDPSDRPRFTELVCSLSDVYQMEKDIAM

Nc1ncnc2c1ncn2[C@@H]1O[C@H](COP(=O)(O)OP(=O)(O)OP(O)(O)=S)[C@@H](O)[C@H]1O [ATP-g-S] showed an IC50 of 14 µM.
Work on Nc1ncnc2c1ncn2[C@@H]1O[C@H](COP(=O)(O)OP(=O)(O)O)[C@@H](O)[C@H]1O [ADT, ADP] yielded an IC50 of 14 µM.
